From patent US20110275721A1, “METHOD FOR THE PURIFICATION OF SUBSTITUTED CYCLOPENT-2-EN-1-ONE CONGENERS AND SUBSTITUTED 1,3-CYCLOPENTADIONE CONGENERS FROM A COMPLEX MIXTURE USING COUNTERCURRENT SEPARATION” (Metaproteomics, LLC, priority 2008, published 2011)

Test: Shake-flask liquid distribution ratio (Kd), Hexane:Water:Buffer of 10:9:1
Format: physicochemical
Details: THIAA Aug. 5, 2008
Procedure: Several shake-flask experiments were conducted to test several solvent systems and determine the liquid distribution ratio (Kd) and partition coefficient values for optimal separations. Partition coefficient values derived from shake-flask experiments are a reliable predictor of countercurrent chromatographic behavior. Kd is the concentration of the analyte in the upper phase divided by the concentration of the analyte in the lower phase and, in the alternative, may be listed as Ku/l.
General Procedure and Parameters for Shake Flask Experiments: Addition of 1 mL of the stock buffer at a known pH. Addition of the other necessary solvents to make up the system. Addition of the analyte mixture dissolved in hexane at 400 mg/mL. Final analyte concentration in the shake flask is 0.1 mg/mL. The flask was capped and mixed (by a vortex mixer) for 10 seconds. An aliquot was taken from the upper phase for HPLC analysis, and additionally a separate aliquot was taken from the lower phase for HPLC analysis from each flask. Each component was analyzed by HPLC and integrated using Shimadzu Class VP Software version 7.3 SP1.

K Value (pH 4.9)	K Value (pH 5.5)	K Value (pH 5.6)	K Value (pH 6.0)	SMILES
55.6	16.1	11.0	5.5	CCC(C)C(=O)C1=C(O)[C@@](O)(C(=O)CCC(C)C)[C@H](CCC(C)C)C1=O (single isomer, unassigned; (+)) [TH 4]
60.3	17.8	11.4	5.5	CCC(C)C(=O)C1=C(O)C(O)(C(=O)CCC(C)C)C(CCC(C)C)C1=O (stereo not drawn) [TH 3, trans tetra ad-isoalpha acid]
32.8	9.5	6.6	3.3	CC(C)CCC(=O)[C@]1(O)C(O)=C(C(=O)CC(C)C)C(=O)[C@H]1CCC(C)C [TH 5, (+)-(4R,5S)-3,4-dihydroxy-2-(3-methylbutanoyl)-5-(3-methylbutyl)-4-(4-methylpentanoyl)cyclopent-2-en-1-one]

More lines, now with the values behind:

SMILES	K Value (pH 4.9)	K Value (pH 5.5)	K Value (pH 5.6)	K Value (pH 6.0)
CC(C)CCC(=O)[C@]1(O)C(O)=C(C(=O)C(C)C)C(=O)[C@H]1CCC(C)C [TH 1, (+)-(4R,5S)-3,4-dihydroxy-2-isobutyryl-5-(3-methylbutyl)-4-(4-methylpentanoyl)cyclopent-2-en-1-one]	16.5	4.2	3.0	1.5
CC(C)CCC(=O)[C@@]1(O)C(O)=C(C(=O)C(C)C)C(=O)[C@H]1CCC(C)C [TH 2, (−)-(4S,5S)-3,4-dihydroxy-2-isobutyryl-5-(3-methylbutyl)-4-(4-methylpentanoyl)cyclopent-2-en-1-one]	10.8	2.5	1.8	0.9
